Experimental data: PMC8390754, “Engineering and functional characterization of a proton-driven β-lactam antibiotic translocation module for bionanotechnological applications” (Scientific Reports, 2021)
pIC50: −log10 of the molar value.

What was measured:
[1] = test system: C[C@H](N)C(=O)N[C@@H](C)C(=O)O; test: radioligand uptake kinetics in E. coli; SSM electrophysiology in proteoliposomes; assay type: cell-based, Yersinia enterocolitica
YePEPT [2] = molecular target: T1, YePEPT (Yersinia enterocolitica, UniProt A0A2R9TD79); test: [3H]Ala-Ala uptake competition in E. coli at […]; assay type: cell-based; settings: read-out: % inhibition at 5 mM
T1 construct: gene YEP4_02370; wild-type
T1 sequence (A0A2R9TD79 1-511): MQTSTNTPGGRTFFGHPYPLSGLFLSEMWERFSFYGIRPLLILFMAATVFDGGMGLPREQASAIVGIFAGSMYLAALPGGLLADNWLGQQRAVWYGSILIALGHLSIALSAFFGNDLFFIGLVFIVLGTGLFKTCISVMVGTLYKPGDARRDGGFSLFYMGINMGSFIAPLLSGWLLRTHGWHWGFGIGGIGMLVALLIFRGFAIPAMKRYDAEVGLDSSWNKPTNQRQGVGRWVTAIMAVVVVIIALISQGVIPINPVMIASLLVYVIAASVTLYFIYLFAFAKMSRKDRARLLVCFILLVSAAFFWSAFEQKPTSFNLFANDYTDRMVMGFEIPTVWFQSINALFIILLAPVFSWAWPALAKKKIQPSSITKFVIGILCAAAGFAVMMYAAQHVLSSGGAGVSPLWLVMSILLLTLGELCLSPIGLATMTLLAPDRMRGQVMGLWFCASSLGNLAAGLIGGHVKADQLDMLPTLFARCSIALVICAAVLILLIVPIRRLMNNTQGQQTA

YePEPT [3] = molecular target: T2, YePEPT (Yersinia enterocolitica, UniProt A0A2R9TD79, F311Y/K314A); test: [3H]Ala-Ala uptake competition in E. coli overexpressing the transporter; transport confirmed by SSM electrophysiology in proteoliposomes; assay type: cell-based
T2 construct: gene YEP4_02370

YePEPT [4] = molecular target: T3, YePEPT (Yersinia enterocolitica, UniProt A0A2R9TD79, K314A); test: [3H]Ala-Ala uptake competition in E. coli at […]; assay type: cell-based
T3 construct: gene YEP4_02370

YePEPT [5] = molecular target: T2, YePEPT; test: SSM electrophysiology with proteoliposomes of purified transporter ([…]); also uptake inhibition in cells; assay type: biochemical

| Molecule | Km [1] [µM] | inhibition at 5000 µM (YePEPT [2]) [%] | pIC50 (YePEPT [3]) | [3H]Ala-Ala uptake competition in E. coli at 5 mM (YePEPT [4]) | % transported charge relative to Ala-Ala (YePEPT [5]) |
| --- | --- | --- | --- | --- | --- |
| YePEPT (Yersinia enterocolitica subsp. palearctica YE-P4; F311Y/K314A) | 199 | – | – | – | – |
| CC1(C)S[C@@H]2[C@H](NC(=O)[C@H](N)c3ccc(O)cc3)C(=O)N2[C@H]1C(=O)O [compound 2, amoxicillin] | – | ~50 | 3.97 | YePEPT^K314A (Fig. 2c) showed a strong increase in affinity for amoxicillin and cefadroxil | – |
| CC=CC1=C(C(=O)O)N2C(=O)[C@@H](NC(=O)[C@H](N)c3ccc(O)cc3)[C@H]2SC1 [compound 7, cefprozil] | – | – | 4.49 | – | – |
| CC1=C(C(=O)O)N2C(=O)[C@@H](NC(=O)[C@H](N)c3ccc(O)cc3)[C@H]2SC1 [compound 6, cefadroxil] | – | – | 3.64 | YePEPT^K314A (Fig. 2c) showed a strong increase in affinity for amoxicillin and cefadroxil | – |
| CC1(C)S[C@@H]2[C@H](NC(=O)[C@H](N)c3ccccc3)C(=O)N2[C@H]1C(=O)O [compound 1, ampicillin] | – | ~50 | – | – | 9 % transported charge relative to Ala-Ala |
